The structures appear in SMILES notation. A value given as a limit tells only on which side of the number the result lay.

A word on the melting point: it is the temperature of the solid-liquid transition. Compound `O=C(c1ccc(Cc2ccc(F)cc2)o1)c1oc(CO)cc(=O)c1OCc1ccccc1` displayed a melting point of 104 to 106 °C.
`O=C(Cc1ccc(Cl)c(Cl)c1)c1ccc(Cl)cc1` came in with a melting point of 99 to 103 °C.
On to `Cn1c(=O)c2c(N)nccc2n(C)c1=O`, for which the melting point is 229 to 230 °C.
In the case of `COc1nc(-c2ccccc2)c(-c2ccc(=O)n(C(C)C)n2)cc1C#N`, the melting point lay within 187 to 189 °C.
The figure for `CCCCCCCCCCCCCCCc1cc2ccc(C(=O)O)cc2[nH]1` is 140 to 142 °C; for `CCCN(CCC)C(=O)C1Cc2ccccc2N1c1nc(-c2ccccc2)nc(C)c1C` (stereo not drawn) it is 167 to 168 °C.
In turn, `Cc1nccn1CC1CCc2c(c3ccccc3n2C)C1NO` (stereo not drawn) registered a melting point of 140 to 144 °C.
Compound `CNC(=NCCS(=O)Cc1nccs1)NC#N` (stereo not drawn) gave a melting point of 110 °C.
In the case of `CC1(C)C(=O)Nc2ccc(C#N)cc2N(C2CC2)C1=O`, the melting point lay in the range of 252 to 253 °C.
As to `S=C1Cc2c([nH]c3ccc(Br)cc23)-c2ccccc2N1`, the melting point was more than 330 °C.
In turn, `O=C1OCCN1N=C1CCOc2ccccc21` registered a melting point of 105 to 108 °C.
Compound `CC(C)(C)[Si](C)(C)Oc1ccc2c(c1)OC(O)c1c-2ccc2cc(O[Si](C)(C)C(C)(C)C)ccc12` (stereo not drawn) came in with a melting point of 188 to 190 °C.
In turn, `Nc1nc(N)c2ncn(C3COC(CO)O3)c2n1` (single isomer, unassigned; (-)) gave a melting point of 237 to 239 °C.
As for `N[C@@H](CC(C(=O)O)=C1CCC1)C(=O)O`, the figure is 212 to 214 °C.
The figure for `Cc1nc(C(=O)c2[nH]c3ccc(Cl)cc3c2CC(=O)O)c[nH]1` is 237 to 238 °C; for `O=C1N(Cc2noc(C3CC3)n2)c2cccc(Cl)c2C12COc1cc3c(cc12)OCO3` (stereo not drawn) it is 180 to 182 °C.
As to `Cc1c(C(N)=O)sc2cncc(Oc3ccc(Br)cc3)c12`, the melting point is 78 to 80 °C.
As for `COc1ccc(F)c(OC)c1-c1ccc(C[C@H](NC(=O)c2c(Cl)cccc2Cl)C(=O)O)cc1`, the figure is 228 to 229 °C; as for `Cc1cn2cccc(OCc3c(Cl)ccc(S(=O)(=O)N4CCC[C@H]4C(=O)O)c3Cl)c2n1`, 135 °C; as for `CCNCc1ccc(O)c(C(CCN(C(C)C)C(C)C)c2ccccc2)c1` (stereo not drawn), 140 to 142 °C.
Compound `CCCn1cc2c(C3C(=O)Nc4ccc(C)cc43)nc(Cl)nc2n1` (stereo not drawn) showed a melting point of 275 to 280 °C.
Compound `O=C1CCCC2=C1C(c1ccc(Br)s1)C1=C(CCS1)N2` (stereo not drawn) displayed a melting point of more than 250 °C.
Regarding `COc1ccc(-n2nc(C)cc2-c2ccccc2)cc1`, the melting point was 110 °C.
Compound `CCCCOC(=O)c1ccc(C(=O)NNC(=O)c2ccc(C(=O)OCCCC)cc2)cc1` came in with a melting point of 166 to 168 °C.
In the case of `CSc1nc(Cl)c(C#N)c(N2CCc3ccccc3CC2)n1`, the melting point was 144 to 150 °C.
On to `CC(=NOCCOc1ccc(CC2SC(=O)NC2=O)cc1)c1cc(C)c(O)c(C)c1` (stereo not drawn), for which the melting point lay in the range of 53 to 65 °C.
As for `CC1(C)Oc2ccc(C#N)cc2[C@@H](NC=O)[C@@H]1O` (relative stereo), the melting point lay within 228 to 230 °C.
Regarding `Cc1nc(-c2ccc(F)cc2)n(-c2ccc(S(N)(=O)=O)cc2)n1`, the melting point is 220 to 221 °C.
In turn, `O=C(OCC1OC(OC(=O)c2ccccc2)C(F)C1OC(=O)c1ccccc1)c1ccccc1` (stereo not drawn) came in with a melting point of 77 to 78 °C.
The figure for `CC(C)CCN1C(=O)C(NC(=O)Oc2cccc(N(C)C)c2)C(=O)N(CC23CC4CC(CC(C4)C2)C3)c2ccccc21` (stereo not drawn) is 172 to 173 °C; for `COc1cc2c3c(cccc3c1)C(=O)c1c(O)cccc1-2` it is 207 to 208 °C.
For `COc1ccc(C2(C)Cc3cc(OCc4ccccc4)c(Cl)c(Cl)c3C2=O)cc1` (stereo not drawn), the melting point is 115 to 119 °C.
Compound `COc1cc(C(=O)O)cc2c(C)c(C)oc12` yielded a melting point of 229 to 231 °C.
As for `N#CC(c1ccc(Cl)c(Cl)c1)c1c(Cl)cc([N+](=O)[O-])cc1Cl` (stereo not drawn), the melting point lay in the range of 171 to 172 °C.
Compound `CCCCN(CCCC)c1ccc(C(C#N)=c2ccc(=C(C#N)C#N)cc2)c(OC)c1` gave a melting point of 215 to 238 °C.
The figure for `N#Cc1cc(C(F)(F)F)nn1-c1ccc(NC(=O)c2ccncc2F)cc1` is 161 to 162 °C.
Turning to `CCCCN(CCCC)CCCOc1ccc(S(=O)(=O)c2ccccc2C(C)C)cc1`, the melting point came to 88 °C.
The compound `CC(C)(C)C(=O)CN1C(=O)C(NC(=O)Nc2cccc(C(=O)NS(C)(=O)=O)c2)CN(c2ccccc2)c2ccccc21` (stereo not drawn) had a melting point of 229 to 233 °C.
As for `COc1ccc2c(c1)C(c1ccc(Cl)cc1)=C1CCC(=S)NC12` (stereo not drawn), the figure is 202 to 203 °C; as for `CN(C)CCCC(=O)Nc1nc2c(s1)-c1c(cnn1-c1ccccc1)CC2`, 165 to 166 °C.
Consider `COc1ccc2c(Cc3c(Cl)cncc3Cl)nnc(CO)c2c1`, for which the melting point lay within 190 to 195 °C.
Consider `O=c1[nH]c2c(Cl)ncnc2n1CCN1CCC(Nc2nc3ccccc3n2Cc2ccc(F)cc2)CC1`, for which the melting point was 266 °C.
In turn, `CC(C)(Cl)CC1NC(=O)c2ccccc21` (stereo not drawn) gave a melting point of 153 to 155 °C.
The figure for `COc1ccc(-c2nc(C(=O)NC(=N)N)sc2-c2ccc(OC)cc2)cc1` is 253 to 255 °C; for `COc1cc(Cl)ccc1C(=O)Nc1ccc(C(=O)N2Cc3ccccc3Cc3ccccc32)cc1` it is 237 to 239 °C; for `Cc1cccc(C)c1-c1cc(C(N)=O)ccc1C(N)=O` it is 246 to 248 °C.
The compound `CC(C)c1nc(CCCO)n(Cc2ccncc2)c1Sc1cc(Cl)cc(Cl)c1` gave a melting point of 106 to 107 °C.
As for `O=C1C=C(C(F)(F)F)N(Br)CN1c1ccc(C(F)(F)F)cn1`, the figure is 142 to 143 °C; as for `Cc1ccc2c(NCc3ccc(NC(=O)C4CCN(Cc5ccc(F)c(F)c5)CC4)cc3)nc(N(C)C)nc2c1`, 97 to 99 °C; as for `CC(=O)c1c(-c2ccc(F)cc2)[nH]c(-c2ccncc2)c1C`, 202 to 203 °C.
`CC(=O)CSC1C2=C(CCCC2)C(=O)N1c1ccc(Cl)cc1F` (stereo not drawn) displayed a melting point of 131 to 132 °C.
As for `Oc1ccc2cc(Br)ccc2c1-c1c(O)ccc2cc(Br)ccc12`, the melting point is 109 to 114 °C.
`CCCCCS(=O)(=O)NC(=O)OCc1ccc(OC(C)C)cc1Oc1ncc(C(F)(F)F)cc1Cl` returned a melting point of 70 to 73 °C.
The figure for `Oc1ccccc1-c1cccnc1` is 185 °C; for `CCCCc1ncc(/C=C(\Cc2cccs2)C(=O)O)n1Cc1ccccc1C#N` it is 210 to 212 °C.
Consider `Cc1ccccc1-n1c(-c2sc(Nc3ccccc3)nc2C)nc2ccccc2c1=O`, for which the melting point lay in the range of 227 to 228 °C.
The figure for `CN(C)c1ncc(O)c(-c2ccc(Cl)c(Cl)c2)n1` is 188 to 189 °C; for `Cc1[nH]c(N)c(C)c1-c1ccnc(Nc2ccc(F)cc2)n1` it is 227 to 231 °C; for `COc1ccnc(CSc2nc3cscc3[nH]2)c1` it is 172 to 175 °C.
With `COc1ccc(CSC2=NC(c3cccc([N+](=O)[O-])c3)C(C(=O)O)=C(C)N2)cc1` (stereo not drawn), the melting point amounted to 90 °C.
In turn, `CCOC(=O)c1oc2ccc([N+](=O)[O-])cc2c1OC` gave a melting point of 90 to 90.4 °C.
As to `CCC(CC)Nc1c(NCc2ccc(OC)c(OC)c2)c(=O)c1=O`, the melting point was in the range of 223 to 224 °C.
The compound `Cc1oc(-c2ccccc2)nc1CCC(=O)c1ccc(C=C2SC(=O)NC2=O)cc1` showed a melting point of 224 to 225 °C.
Compound `c1ccc(-c2noc3ccccc23)c(CNCc2ccccc2-c2noc3ccccc23)c1` came in with a melting point of 138 °C.
As for `C=CCNC(=O)C1CCc2cc(-c3ccccc3)ccc2O1` (stereo not drawn), the figure is 123 to 124 °C; as for `CCCOc1ncc(NC(=O)N(C)C)cc1-c1nc2c(CCC)nn(C)c2c(=O)[nH]1`, 219 to 220 °C; as for `N#Cc1cnc2cnc(F)cc2c1Nc1ccc(F)c(Cl)c1`, 108 to 111 °C.
As for `N#Cc1c(Cl)ccc(F)c1Cl`, the figure is 69 to 71 °C.
As for `O=C1Nc2cccc(Br)c2C(=O)N2CC[C@@H]12`, the figure is 182 to 183 °C; as for `CCOC(=O)Cn1c(Br)c(Br)c(C#N)c1Br`, 140 to 143 °C; as for `COc1ccc(C(C)=O)cc1C(C)=CC(=O)O`, 194 °C.
In turn, `COCCOCc1c(CO)sc2c(=O)c(C(=O)NCc3ccc(Cl)cc3)cn(C)c12` displayed a melting point of 167 to 168 °C.
In the case of `O=C1NCCN1c1ccc(S(=O)(=O)Oc2ccc3[nH]ccc3c2)cc1`, the melting point is 226 to 227 °C.
As for `CN(C(=O)c1ccccc1OCC(=O)O)c1ccccc1`, the melting point was found to be 148 °C.
As for `CC(C)(C)COc1ccc(N(CC(=O)O)C(=O)c2cccn2-c2ccc(F)cc2)cc1C#N`, the melting point was 140 to 143 °C.
As for `CC(C)(CO)c1ccc(C(=O)O)cc1`, the figure is 154 to 156 °C; as for `NC(=O)c1ccc(F)c2c1OCC(N(CCCc1c[nH]c3c(F)cc(F)cc13)CC1CC1)C2` (stereo not drawn), 124 °C.
Regarding `CC(=O)Nc1cc(O)ccc1/C=C/c1ccc(O)cc1`, the melting point was in the range of 227 to 229 °C.
As to `CC(=O)Nc1ccc2nc(CN(C(C)C)C(C)C)ccc2c1`, the melting point was 147 to 148 °C.
As for `Cn1cc(C(=O)NCCC2CCN(S(=O)(=O)NC(=O)NC3CCCCC3)CC2)c(=O)n(C)c1=O`, the figure is 205 to 207 °C.
Consider `OC(CN1CCC(C(O)c2ccccc2)CC1)c1ccc(F)cc1` (stereo not drawn), for which the melting point lay in the range of 114 to 116 °C.
In turn, `COC(=O)c1cc2cc(OC)ccc2[nH]1` yielded a melting point of 178 to 181 °C.
For the compound `CN(C)CC(C)(C)CNc1ncc2cc(-c3c(Cl)cccc3Cl)c(NC(=O)NC(C)(C)C)nc2n1`, the melting point fell in the range of 161 to 170 °C.
With `C[C@H](N)C(=O)NC(C)(Cc1ccc(F)cc1)c1ccc(F)cc1` (stereo partly drawn), the melting point fell in the range of 134 to 135 °C.
Compound `Oc1nc(Cc2ccccc2)nc(O)c1-c1ccccc1` displayed a melting point of 337 °C.
The compound `Cn1cccc1C(=O)C(C#N)C(=O)Nc1ccc([N+](=O)[O-])cc1` (stereo not drawn) displayed a melting point of 193 to 195 °C.
Compound `O=C1c2ccccc2C(=O)N1CCCCCSc1ccccc1` yielded a melting point of 87 to 88 °C.
`O=C(O)CCc1cnoc1-c1ccc(F)cc1F` had a melting point of 125 to 126 °C.

The values are drawn from a melting point compilation (Tetko et al.; mined from patent text by program, amines drawn as free bases though some values may be those of a salt).
